pEC50, pIC50: −log10 of the molar value. Like-named read-outs stand apart in the source and are kept apart here.

The record followed here is patent publication US11952365B2, “Anti-viral compounds” (Aligos Therapeutics, Inc., priority 2020, dated 2024).

Series [1] addresses 3CLpro (Severe acute respiratory syndrome coronavirus 2, UniProt P0DTD1). The series can be described thus: SARS-CoV-2 3CLpro protease assay (duplex, SAMDI-MS). Particulars: 3CLpro, 30 mins preincubation, class symbols; read-out: SARS-Cov-2 IC50. It is filed as biochemical. Also on record: For the duplex assay, 3CLpro and HRV3C was added.
The target in series [2] is T1, human cathepsin L (Homo sapiens, UniProt P07711).
T1 construct: purchased R&D Systems
The series can be described thus: cathepsin L assay. It counts as biochemical. Particulars: 10 pM human cathepsin L, Z-FR-AMC 2 μM, class symbols. As to the method: For the cathepsin L assay, 10 pM of human cathepsin L (R&D Systems; Minneapolis, MN) was preincubated for 30 mins with test compounds. Reactions were initiated by the addition of a peptide substrate Z-FR-AMC (final concentration 2 μM, Anaspec; Fremont, CA). Fluorescence was measured at 2-minute intervals for 30 mins using a 355/460 excitation/emission filter module on an Envision plate reader (Perkin Elmer; Waltham, MA). The IC50 values were calculated for each assay by fitting the curves using a four-parameter equation in GraphPad Prism.

Series [3] can be described thus: in vitro. Particulars: African green monkey, VeroE6 + CP (CC50), Vero E6-eGFP cells with CP-100356, absence of virus, MTS.
Series [4] has as its system SARS-CoV-2-GHB-03021/2020. The series can be described thus: microbe, parasite or virus in culture. It is filed as cell-based. Particulars: Severe acute respiratory syndrome coronavirus 2, Vero C1008, 96 h; read-out: VeroE6 + CP (EC50).
A short description of series [5]: Cytotoxicity plates without OC43 virus (cell-titer-glo). It counts as cell-based, human. Particulars: human; HeLa cells without OC43 virus, class symbols. As to the method: The human beta-coronavirus OC43 was purchased from ATCC (Manassas, VA) and propagated using HCT-8 human colorectal epithelial cells (ATCC). HeLa human cervical epithelial cells (ATCC) were used as susceptible host cell lines and were cultured using EMEM media, supplemented with 10% fetal bovine serum (FBS), 1% (v/v) penicillin/streptomycin (P/S), 1% (v/v) HEPES and 1% (v/v) Cellgro Glutagro™ supplement (all Corning, Manassas, VA) at 37° C. For the OC43 antiviral assay, 1.5×10^4 HeLa cells per well were plated in 100 μL complete media in white 96-well plates with clear bottoms at 37° C. for up to 24 h to facilitate attachment and allow cells to recover from seeding stresses. Next day, the cell culture medium was removed. Serially diluted compounds in 100 μL assay media (EMEM, 2% FBS, 1% P/S, 1% Cellgro Glutagro™ supplement, 1% HEPES) were added to the cells and incubated for 4H at 37° C. in a humidified 5% CO2 incubator. 100 μL of OC43 virus stock was diluted to a concentration known to produce optimal cytopathic effect, inducing 80-90% reduction in cell viability. 96-well plates were incubated for 6 (HeLa) days at 33° C.; each plate contains uninfected control wells as well as virus-infected wells that were not treated with compound. Cytotoxicity plates without the addition of OC43 virus were carried out in parallel. At the end of the incubation period, 100 μL cell culture supernatant was replaced with 100 μL cell-titer-glo reagent (Promega, Madison, WI) and incubated for at least 10 min at rt prior to measuring luminescence. Luminescence was measured on a Perkin Elmer (Waltham, MA) Envision plate reader. Antiviral % inhibition was calculated as follows: [(Compound treated cells infected sample)−(no compound infected control)]/[(Uninfected control)−(no compound infected control)]*100; Using GraphPad (San Diego, CA) prism software version 8.3.1, the antiviral dose-response plot was generated as a sigmoidal fit, log(inhibitor) vs response-variable slope (four parameters) model and the EC50 was calculated which is the predicted compound concentration corresponding to a 50% inhibition of the viral cytopathic effect.

In series [6] the target is HRV3C (Human rhinovirus 14, UniProt P03303). The series can be described thus: HRV3C protease assay (duplex, SAMDI-MS). Conditions: 30 mins preincubation. It counts as biochemical, HRV. As to the method:
Protease assays were performed in 384-well low volume polypropylene microtiter plates at ambient temperature. For the duplex assay, 3CLpro and HRV3C was added using a Multidrop Combi (Thermo Scientific; Waltham, MA) and preincubated for 30 mins with small molecules. The reactions were initiated by the addition of the two peptide substrates. The reactions were incubated for 30 mins and quenched by the addition of 0.5% formic acid (final) with subsequent neutralization using 1% sodium bicarbonate (final). Internal standard peptides were added in 20 mM Hepes pH 8.0 for quantitation of the protease products. For SAMDI-MS analysis, 2 μL of each reaction mixture was transferred using a 384-channel automated liquid handler to SAMDI biochip arrays functionalized with a neutravidin-presenting self-assembled monolayer. The SAMDI arrays were incubated for 1 h in a humidified chamber to allow the specific immobilization of the biotinylated peptide substrates, cleaved products and internal standards. The samples were purified by washing the SAMDI arrays with deionized ultrafiltered water and dried with compressed air. A matrix comprising alpha-cyano cinnamic acid in 80% acetonitrile:20% aqueous ammonium citrate was applied in an automated format by dispensing 50 nL to each spot in the array. SAMDI-MS was performed using reflector-positive mode on an AB Sciex TOF-TOF 5800 System (AB Sciex, Framingham, MA) with 400 shots/spot analyzed in a random raster sampling. For data analysis, area under the curves (peaks) (AUCs) for the product and internal standard were calculated using the TOF/TOF Series Explorer (AB Sciex), and the amount of product formed was calculated using the equation (AUC product/AUC internal standard). The amount of product generated was calculated using the ratio of product area under the curve (AUC) divided by the AUC of the internal standard. Negative controls were pre-quenched with 0.5% formic acid final. Assay robustness was determined by Z-Factor. The IC50s were determined by fitting the curves using a four-parameter equation in Graphpad Prism 8.

Series [7] concerns human beta-coronavirus OC43. The series can be described thus: microbe, parasite or virus in culture. Particulars: Betacoronavirus 1, OC43, HeLa, 144 h. It is filed as cell-based.
The mark [8] stands for this setting: HRV3C, class symbols, read-out: HRV IC50.
The mark [9] stands for this setting: OC43 in HeLa cells, 6 days at 33° C., class symbols, read-out: EC50.

Turning to `O=C[C@H](C[C@@H]1CCNC1=O)NC(=O)[C@@H]1[C@H]2CCC[C@H]2CN1C(=O)c1cc2ccccc2[nH]1` [Compound 13, (1S,3aR,6aS)-2-(1H-indole-2-carbonyl)-N-[(2S)-1-oxo-3-[(3S)-2-oxopyrrolidin-3-yl]propan-2-yl]-hexahydro-1H-cyclopenta[c]pyrrole-1-carboxamide], the results for the negative-log IC50 (pIC50) in series [1], in series [2] and in series [6] (setting [8]) were over 7.70, 5.00 to 6.00 and 5.70 to 6.70, respectively. Besides, the CC50 in series [3] (numeric bounds) is over 100 µM. For the same molecule, the pEC50 in series [4] and in series [7] (setting [9]) was 5.00 to 6.00 throughout. In addition, the cytotoxic concentration (CC50) at 6 days in series [5] was over 10 µM.
Take `O=C1NCC[C@H]1C[C@H](NC(=O)[C@@H]1[C@H]2CCC[C@H]2CN1C(=O)c1cc2ncccc2[nH]1)C(=O)CO` [Compound 78, (1S,3aR,6aS)—N—((S)-4-hydroxy-3-oxo-1-((S)-2-oxopyrrolidin-3-yl)butan-2-yl)-2-(1H-pyrrolo[3,2-b]pyridine-2-carbonyl)octahydrocyclopenta[c]pyrrole-1-carboxamide]: the figures for the negative-log IC50 (pIC50) in series [1], in series [2] and in series [6] (setting [8]) were 6.70 to 7.70, at most 5.00 and 4.70 to 5.70, respectively. Also, in series [3] (numeric bounds), the cytotoxic concentration (CC50) is over 100 µM. Further, the negative logarithm of the EC50 (pEC50) in series [4] is 4.00 to 5.00; in series [7] (setting [9]) it was 5.00 to 6.00. Further, the CC50 at 6 days in series [5] is over 10 µM.
Turning to `CO[C@@H]1C[C@@H](C(=O)NC(C[C@@H]2CCNC2=O)C(=O)C(=O)NCc2ccccc2)N(C(=O)c2cc3ccccc3[nH]2)C1` (stereo partly shown) [Compound 12], the negative logarithm of the IC50 (pIC50) is 4.70 to 5.70 in series [1] and 4.00 to 4.70 in series [6] (HRV IC50, HRV3C, class symbols). Moreover, the CC50 in series [3] (numeric bounds) is over 100 µM. The pEC50 is under 4.00 in series [4] and 4.00 to 5.00 in series [7] (setting [9]). In series [5], the CC50 at 6 days is over 10 µM.
On to `CC(C)(C)O[C@@H]1C[C@@H](C(=O)NC(C[C@@H]2CCNC2=O)C(=O)C(=O)NCc2ccccc2)N(C(=O)c2cc3ccccc3[nH]2)C1` (stereo partly shown) [Compound 10], for which the pIC50 was 4.70 to 5.70 in series [1] and 5.70 to 6.70 in series [6] (HRV IC50, HRV3C, class symbols). Moreover, the CC50 in series [3] (numeric bounds) was over 100 µM. The pEC50 is under 4.00 in series [4] and 5.00 to 6.00 in series [7] (setting [9]). For the same molecule, the cytotoxic concentration (CC50) at 6 days in series [5] is over 10 µM.
In the case of `C=CC[C@@H]1C[C@@H](C(=O)N[C@@H](C[C@@H]2CCNC2=O)C(=O)C(=O)NCc2ccccc2)N(C(=O)c2cc3ccccc3[nH]2)C1` [Compound 21], the negative logarithm of the IC50 (pIC50) was 5.70 to 6.70 in series [1] and 4.70 to 5.70 in series [6] (HRV IC50, HRV3C, class symbols). Moreover, the negative-log EC50 (pEC50) in series [4] was 4.00 to 5.00; in series [7] (setting [9]), 6.00 to 7.00. The molecule also yielded a CC50 at 6 days in series [5] of over 10 µM.
Turning to `O=C(NCc1ccccc1)C(=O)C(C[C@@H]1CCNC1=O)NC(=O)[C@@H]1CC2(CC2)CN1C(=O)c1cc2ccccc2[nH]1` (stereo partly shown) [Compound 9], the results for the negative-log IC50 (pIC50) in series [1], in series [2] and in series [6] (setting [8]) were 6.70 to 7.70, 6.00 to 7.00 and 4.70 to 5.70, respectively. For the same molecule, in series [3] (numeric bounds), the cytotoxic concentration (CC50) was over 100 µM. Besides, the negative-log EC50 (pEC50) in series [4] is 5.00 to 6.00; in series [7] (setting [9]) it was 6.00 to 7.00. The same molecule showed a CC50 at 6 days in series [5] of over 10 µM.
`COc1cccc2[nH]c(C(=O)N3Cc4ccccc4C[C@H]3C(=O)N[C@@H](C[C@@H]3CCNC3=O)C(=O)COCc3ccccc3)cc12` [Compound 99]: the negative logarithm of the IC50 (pIC50) in series [1] was 4.70 to 5.70; in series [2], at most 5.00; in series [6] (HRV3C, bound, read-out: HRV IC50) it was under 5.00. Besides, the CC50 in series [3] (class symbols) was over 10 µM. The pEC50 is 4.00 to 5.00 in series [4] and under 5.00 in series [7] (OC43 in HeLa cells, 6 days at 33° C., bound, read-out: EC50). The same molecule yielded a cytotoxic concentration (CC50) at 6 days in series [5] of over 10 µM.
In the case of `Cn1ccc2[nH]c(C(=O)N3C[C@@H]4CCC[C@@H]4[C@H]3C(=O)N[C@@H](C[C@@H]3CCNC3=O)C(=O)CO)cc2c1=O` [Compound 77, (1S,3aR,6aS)—N—((S)-4-hydroxy-3-oxo-1-((S)-2-oxopyrrolidin-3-yl)butan-2-yl)-2-(5-methyl-4-oxo-4,5-dihydro-1H-pyrrolo[3,2-c]pyridine-2-carbonyl)octahydrocyclopenta[c]pyrrole-1-carboxamide], the pIC50 in series [1] was 6.70 to 7.70; in series [2], at most 5.00; in series [6] (HRV IC50, HRV3C, class symbols), 4.70 to 5.70. For the same molecule, the 50% cytotoxic concentration (CC50) in series [3] (class symbols) was over 10 µM. Also, the pEC50 in series [4] was 4.00 to 5.00; in series [7] it was under 5.00. The 50% cytotoxic concentration (CC50) at 6 days in series [5] was over 10 µM.
`O=C(NCc1ccccc1)C(=O)C(C[C@@H]1CCNC1=O)NC(=O)[C@@H]1CCCCN1C(=O)c1cc2ccccc2[nH]1` (stereo partly drawn) [Compound 1, (2S)—N-(4-(benzylamino)-3,4-dioxo-1-((S)-2-oxopyrrolidin-3-yl)butan-2-yl)-1-(1H-indole-2-carbonyl)piperidine-2-carboxamide]: the pIC50 is 4.70 to 5.70 in series [1] and 4.00 to 4.70 in series [6] (HRV IC50, HRV3C, class symbols). The CC50 in series [3] (numeric bounds) is over 100 µM. In addition, the negative-log EC50 (pEC50) was under 4.00 in series [4] and 5.00 to 6.00 in series [7] (setting [9]). This molecule also showed a half-maximal cytotoxic concentration (CC50) at 6 days in series [5] of over 10 µM.
Regarding `O=C(NCc1ccccc1)C(=O)C(C[C@@H]1CCNC1=O)NC(=O)[C@@H]1C[C@@H](Oc2ccccc2)CN1C(=O)c1cc2ccccc2[nH]1` (stereo partly shown) [Compound 5], the pIC50 in series [1] was 4.00 to 4.70; in series [6] (HRV IC50, HRV3C, class symbols), 5.70 to 6.70. In series [3] (numeric bounds), the CC50 is over 100 µM. Further, the negative logarithm of the EC50 (pEC50) in series [4] was 4.00 to 5.00; in series [7] (setting [9]), 5.00 to 6.00. The molecule further registered a CC50 at 6 days in series [5] of over 10 µM.
In the case of `O=C(NCc1ccccc1)C(=O)C(C[C@@H]1CCNC1=O)NC(=O)[C@@H]1C[C@@H](OCc2ccccc2)CN1C(=O)c1cc2ccccc2[nH]1` (stereo partly shown) [Compound 6], the negative-log IC50 (pIC50) is 4.70 to 5.70 in series [1] and 5.70 to 6.70 in series [6] (HRV IC50, HRV3C, class symbols). Moreover, in series [3] (numeric bounds), the CC50 is over 100 µM. In addition, the pEC50 in series [4] is under 4.00; in series [7] (setting [9]) it was 5.00 to 6.00. Besides, the CC50 at 6 days in series [5] was over 10 µM.
